ChEMBL document CHEMBL6134931, “Lysine-Targeted Covalent Strategy Leading to the Discovery of Novel Potent PROTAC-Based PI3Kδ Degraders” (J Med Chem, 2025)

Key:
MDA-MB-231 = test: Antiproliferative activity against human MDA-MB-231 cells; format: functional, cell-based
[1] = biological target: Protein cereblon/Phosphatidylinositol 4,5-bisphosphate 3-kinase catalytic subunit alpha isoform (Homo sapiens, UniProt P42336+Q96SW2); test: PROTAC activity at CRBN/p110alpha in human MDA-MB-231 cells assessed as induction of p110alpha degradation; format: cell-based
Sequence of Protein cereblon/Phosphatidylinositol 4,5-bisphosphate 3-kinase catalytic subunit alpha isoform (P42336 whole entry, canonical isoform): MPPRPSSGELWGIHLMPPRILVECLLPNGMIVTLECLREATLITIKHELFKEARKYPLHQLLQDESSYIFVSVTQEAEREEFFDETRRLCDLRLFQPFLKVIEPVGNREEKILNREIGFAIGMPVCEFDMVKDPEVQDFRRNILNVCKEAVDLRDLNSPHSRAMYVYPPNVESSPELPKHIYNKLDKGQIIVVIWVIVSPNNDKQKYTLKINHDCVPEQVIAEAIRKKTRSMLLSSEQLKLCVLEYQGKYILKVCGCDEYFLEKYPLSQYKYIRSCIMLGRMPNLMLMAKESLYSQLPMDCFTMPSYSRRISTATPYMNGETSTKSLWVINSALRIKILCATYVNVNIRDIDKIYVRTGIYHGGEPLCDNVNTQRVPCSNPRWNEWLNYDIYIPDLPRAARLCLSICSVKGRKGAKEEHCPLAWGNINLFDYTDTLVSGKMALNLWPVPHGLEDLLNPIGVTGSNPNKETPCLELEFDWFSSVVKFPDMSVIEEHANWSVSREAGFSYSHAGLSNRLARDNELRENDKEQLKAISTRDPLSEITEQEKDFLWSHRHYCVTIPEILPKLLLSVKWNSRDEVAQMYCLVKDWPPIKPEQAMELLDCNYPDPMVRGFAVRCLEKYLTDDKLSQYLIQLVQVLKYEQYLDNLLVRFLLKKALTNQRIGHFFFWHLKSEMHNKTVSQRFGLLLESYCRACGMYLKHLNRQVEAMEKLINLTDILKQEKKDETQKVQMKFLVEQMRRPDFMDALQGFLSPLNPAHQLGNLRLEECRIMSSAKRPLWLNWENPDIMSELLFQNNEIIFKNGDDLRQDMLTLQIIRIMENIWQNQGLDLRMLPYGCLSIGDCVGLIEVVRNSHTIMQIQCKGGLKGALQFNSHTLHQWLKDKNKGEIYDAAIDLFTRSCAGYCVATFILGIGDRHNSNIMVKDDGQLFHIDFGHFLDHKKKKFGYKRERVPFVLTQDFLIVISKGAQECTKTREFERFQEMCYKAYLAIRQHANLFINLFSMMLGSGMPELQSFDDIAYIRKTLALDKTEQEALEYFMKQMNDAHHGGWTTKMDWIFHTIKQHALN
Sequence of Protein cereblon/Phosphatidylinositol 4,5-bisphosphate 3-kinase catalytic subunit alpha isoform (Q96SW2 whole entry, canonical isoform): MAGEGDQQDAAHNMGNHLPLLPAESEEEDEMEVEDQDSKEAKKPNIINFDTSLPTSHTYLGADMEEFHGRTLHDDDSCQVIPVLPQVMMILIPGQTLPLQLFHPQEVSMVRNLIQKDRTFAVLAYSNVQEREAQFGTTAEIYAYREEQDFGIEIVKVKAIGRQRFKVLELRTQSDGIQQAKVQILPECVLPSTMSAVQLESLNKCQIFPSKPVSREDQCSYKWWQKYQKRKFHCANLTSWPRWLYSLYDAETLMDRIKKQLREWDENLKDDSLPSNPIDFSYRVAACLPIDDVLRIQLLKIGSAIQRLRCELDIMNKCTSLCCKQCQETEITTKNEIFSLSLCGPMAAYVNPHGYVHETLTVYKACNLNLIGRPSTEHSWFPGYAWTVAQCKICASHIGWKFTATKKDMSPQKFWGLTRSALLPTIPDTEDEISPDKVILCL

[2] = biological target: von Hippel-Lindau disease tumor suppressor/Phosphatidylinositol 4,5-bisphosphate 3-kinase catalytic subunit delta isoform (Homo sapiens) (UniProt O00329+P40337); test: PROTAC activity at VHL/p110delta in human SU-DHL-6 cells assessed as induction of p110delta degradation at 100 nM measured after 12 hrs in presence of (2S,4R)-1-((S)-2-acetamido-3,3-dimethylbutanoyl)-4-hydroxy-N-(4-(4-methylthiazol-5-yl)benzyl)pyrrolidine-2-carboxamide by Western blot analysis; format: cell-based
Sequence of von Hippel-Lindau disease tumor suppressor/Phosphatidylinositol 4,5-bisphosphate 3-kinase catalytic subunit delta isoform (Homo sapiens) (P40337 whole entry, looked up, one chain of several, canonical isoform): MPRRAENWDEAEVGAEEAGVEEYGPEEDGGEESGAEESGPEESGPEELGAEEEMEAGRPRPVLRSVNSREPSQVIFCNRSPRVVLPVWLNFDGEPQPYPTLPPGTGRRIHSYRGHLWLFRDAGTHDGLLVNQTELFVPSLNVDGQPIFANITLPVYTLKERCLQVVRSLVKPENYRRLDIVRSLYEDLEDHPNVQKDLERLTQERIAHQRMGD

[3] = biological target: T1, Phosphatidylinositol 4,5-bisphosphate 3-kinase catalytic subunit delta isoform (Homo sapiens) (UniProt O00329); test: Induction of p110delta degradation in human SU-DHL-6 cells at 1000 nM incubated for 24 hrs by Western blot analysis; format: cell-based
T1 sequence (whole entry): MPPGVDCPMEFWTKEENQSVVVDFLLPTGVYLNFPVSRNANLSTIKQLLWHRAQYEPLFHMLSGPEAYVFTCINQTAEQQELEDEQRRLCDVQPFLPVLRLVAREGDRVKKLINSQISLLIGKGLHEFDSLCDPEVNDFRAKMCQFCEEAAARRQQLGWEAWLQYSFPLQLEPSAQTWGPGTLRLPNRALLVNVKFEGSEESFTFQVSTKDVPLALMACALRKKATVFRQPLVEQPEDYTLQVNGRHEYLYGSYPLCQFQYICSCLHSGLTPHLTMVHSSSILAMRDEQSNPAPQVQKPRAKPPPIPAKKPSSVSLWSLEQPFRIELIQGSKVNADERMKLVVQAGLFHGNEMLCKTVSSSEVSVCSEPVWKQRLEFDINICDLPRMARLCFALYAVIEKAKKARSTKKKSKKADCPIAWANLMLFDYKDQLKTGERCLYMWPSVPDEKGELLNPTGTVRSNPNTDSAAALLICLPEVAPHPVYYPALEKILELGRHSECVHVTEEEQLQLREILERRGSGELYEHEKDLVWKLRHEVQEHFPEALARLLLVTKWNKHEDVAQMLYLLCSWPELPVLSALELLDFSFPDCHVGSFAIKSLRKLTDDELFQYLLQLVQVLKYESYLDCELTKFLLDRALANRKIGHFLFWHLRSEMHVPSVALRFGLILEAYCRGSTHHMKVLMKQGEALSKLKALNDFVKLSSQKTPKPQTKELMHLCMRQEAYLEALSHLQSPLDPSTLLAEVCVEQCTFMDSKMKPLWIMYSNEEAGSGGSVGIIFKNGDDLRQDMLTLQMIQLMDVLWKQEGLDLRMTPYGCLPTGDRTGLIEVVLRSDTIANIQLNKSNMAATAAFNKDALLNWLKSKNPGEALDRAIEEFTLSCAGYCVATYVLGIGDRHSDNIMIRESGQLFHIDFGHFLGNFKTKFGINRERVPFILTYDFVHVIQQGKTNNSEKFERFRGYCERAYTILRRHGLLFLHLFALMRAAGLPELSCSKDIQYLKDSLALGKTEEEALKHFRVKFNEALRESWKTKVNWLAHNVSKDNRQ

Row | IC50 (MDA-MB-231) | DC50 [1] | Activity [3] | SMILES | Activity [2]
1 | 86.8 nM | 5 nM | – | COc1c(OCCOCCOCCCCCc2cn(CCCCCNc3cccc4c3C(=O)N(C3CCC(=O)NC3=O)C4=O)nn2)ccc2c1N=C(NC(=O)c1cnc(N)nc1)N1CCN=C21 (centres undefined) | –
2 | – | – | < 20% | COc1ncc(-c2ccc3ncnc(N[C@H]4CCN(C(=O)C5CCOCC5)C4)c3n2)cc1C(=O)Oc1ccccc1 | Not active; Formation Of Ternary Complex Plays A Pivotal Factor In Degradation
